Two compounds from EP0970067B1, “(METHYLSULFONYL)PHENYL-2-(5H)-FURANONES WITH OXYGEN LINK AS COX-2 INHIBITORS” (Merck Frosst Canada & Co., priority 1997, dated 1998) can be followed below.

A word on the ED50: it is the dose that gives a 50% effect, or the effect in half of the subjects. Low readings indicate greater potency, high ones weaker potency. A word on the IC50: it is the concentration needed to halve the response being measured.

For one test, the system named is Rat Paw Edema. Briefly: Rat paw edema assay (carrageenan-induced). The class given is in vivo, Male Sprague-Dawley rats. The following applies: po, 1 hr before subplantar carrageenan, paw volume measured three hr later. The protocol: Male Sprague-Dawley rats (150-200 g) are fasted overnight and are given, po, either vehicle (1% methocel or 5% Tween 80) or a test compound. One hr later, a line is drawn using a permanent marker at the level above the ankle in one hind paw to define the area of the paw to be monitored. The paw volume (V0) is measured using a plethysmometer (Ugo-Basile, Italy) based on the principle of water displacement. The animals are then injected subplantarly with […] of 1% carrageenan solution in saline (FMC Corp, Maine) into the paw using an insulin syringe with a 25-gauge needle (i.e. […] carrageenan per paw). Three hr later, the paw volume (V3) is measured and the increases in paw volume (V3 - VO) are calculated. The animals are sacrificed by CO2 asphyxiation and the absence or presence of stomach lesions scored. Data is compared with the vehicle-control values and percent inhibition calculated. All treatment groups are coded to eliminate observer bias.
On the technique in general: In the carrageenan paw model, swelling and tenderness develop within hours.

The target in another test is T1, human COX-1 (Homo sapiens, UniProt P23219).
T1 construct: expressed in transfected cells; host or cells: CHO [hCOX-1], stably transfected with pCDNAIII
T1 sequence (P23219 24-599): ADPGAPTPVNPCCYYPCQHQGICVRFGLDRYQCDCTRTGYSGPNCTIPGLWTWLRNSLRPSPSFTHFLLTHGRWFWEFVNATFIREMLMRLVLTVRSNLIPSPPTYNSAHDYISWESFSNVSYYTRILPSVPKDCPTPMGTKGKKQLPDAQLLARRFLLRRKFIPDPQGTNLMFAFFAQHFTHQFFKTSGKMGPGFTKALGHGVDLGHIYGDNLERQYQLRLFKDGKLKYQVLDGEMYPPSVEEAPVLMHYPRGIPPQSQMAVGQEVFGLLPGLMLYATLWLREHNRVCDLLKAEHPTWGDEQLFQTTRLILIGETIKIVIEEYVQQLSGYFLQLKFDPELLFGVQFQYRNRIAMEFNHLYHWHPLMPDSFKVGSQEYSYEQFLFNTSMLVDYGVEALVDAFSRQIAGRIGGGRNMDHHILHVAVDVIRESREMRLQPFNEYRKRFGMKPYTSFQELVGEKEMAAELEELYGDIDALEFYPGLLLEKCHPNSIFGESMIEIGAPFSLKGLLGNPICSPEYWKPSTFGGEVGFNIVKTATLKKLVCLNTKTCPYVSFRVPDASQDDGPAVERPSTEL
Briefly: Whole cell COX-1 assay using CHO transfected cell line (PGE2 radioimmunoassay). The class given is cell-based. As to conditions: CHO [hCOX-1] cells; PGE2 synthesis in response to arachidonic acid. On the procedure: Compounds are tested as inhibitors of cyclooxygenase activity in whole cell cyclooxygenase assays. These assays measure prostaglandin E2 synthesis in response to arachidonic acid, using a radioimmunoassay. Cells used for these assays are chinese hamster ovary (CHO) cell lines which have been stably transfected with an eukaryotic expression vector […] containing either the human Cox-1 or Cox-2 CDNA's. U937 cell microsomes are also used to measure Cox-1 activity.
Chinese hamster ovary (CHO) cell lines which have been stably transfected with an eukaryotic expression vector pCDNAIII containing either the human COX-1 or COX-2 cDNA's are used for the assay. These cell lines are referred to as CHO [hCOX-1] and CHO [hCOX-2], respectively. […]
Compounds of the present invention are inhibitors of cyclooxygenase-2 and are thereby useful in the treatment of cyclooxygenase-2 mediated diseases as enumerated above. […] In the assay, inhibition is determined by measuring the amount of prostaglandin E2 (PGE2) synthesized in the presence of arachidonic acid, cyclooxygenase-1 or cyclooxygenase-2 and a putative inhibitor.

On to `C[C@@H](CF)COC1=C(c2ccc(S(C)(=O)=O)cc2)C(C)(C)OC1=O` [Example 10, 3-(((2R)-3-Fluoro-2-methylpropyl)oxy)-5,5-dimethyl-4-(4-methylsulfonylphenyl)-5H-furan-2-one], for which the ED50 in the test on Rat Paw Edema amounted to 3.2 mg/kg. The IC50 against human COX-1 came to 100 µM.
In the test with Rat Paw Edema, `C[C@H](CF)COC1=C(c2ccc(S(C)(=O)=O)cc2)C(C)(C)OC1=O` [Example 11, 3-(((2S)-3-fluoro-2-methylpropyl)oxy)-5,5-dimethyl-4-(4-methylsulfonylphenyl)-5H-furan-2-one] registered an ED50 of 2.3 mg/kg. For the same compound, on human COX-1, the IC50 was over 50 µM.
